Measured values: US10947242B2, “[1,2,4]triazolo[1,5and#8208;A]pyrimidine compounds as PDE2 inhibitors” (Janssen Pharmaceutica NV, priority 2016, dated 2021)
Read-outs that look alike come from different tables or passages of the source.

What was measured:
[1] = biological target: T1, Human recombinant PDE10A (hPDE10A) (Homo sapiens, UniProt Q9Y233); assay: In vitro assay PDE10A, human clone (SPA, 3H-cAMP hydrolysis); assay type: biochemical; details: human clone (h), default; for Emax: read-out: hPDE10A2 Emax; for IC50: read-out: hPDE10A2 pIC50 (converted)
T1 construct: His tag (inferred from metal chelate purification); made in house; host or cells: Sf9 insect cells (baculovirus)
T1 sequence (Q9Y233 267-1055): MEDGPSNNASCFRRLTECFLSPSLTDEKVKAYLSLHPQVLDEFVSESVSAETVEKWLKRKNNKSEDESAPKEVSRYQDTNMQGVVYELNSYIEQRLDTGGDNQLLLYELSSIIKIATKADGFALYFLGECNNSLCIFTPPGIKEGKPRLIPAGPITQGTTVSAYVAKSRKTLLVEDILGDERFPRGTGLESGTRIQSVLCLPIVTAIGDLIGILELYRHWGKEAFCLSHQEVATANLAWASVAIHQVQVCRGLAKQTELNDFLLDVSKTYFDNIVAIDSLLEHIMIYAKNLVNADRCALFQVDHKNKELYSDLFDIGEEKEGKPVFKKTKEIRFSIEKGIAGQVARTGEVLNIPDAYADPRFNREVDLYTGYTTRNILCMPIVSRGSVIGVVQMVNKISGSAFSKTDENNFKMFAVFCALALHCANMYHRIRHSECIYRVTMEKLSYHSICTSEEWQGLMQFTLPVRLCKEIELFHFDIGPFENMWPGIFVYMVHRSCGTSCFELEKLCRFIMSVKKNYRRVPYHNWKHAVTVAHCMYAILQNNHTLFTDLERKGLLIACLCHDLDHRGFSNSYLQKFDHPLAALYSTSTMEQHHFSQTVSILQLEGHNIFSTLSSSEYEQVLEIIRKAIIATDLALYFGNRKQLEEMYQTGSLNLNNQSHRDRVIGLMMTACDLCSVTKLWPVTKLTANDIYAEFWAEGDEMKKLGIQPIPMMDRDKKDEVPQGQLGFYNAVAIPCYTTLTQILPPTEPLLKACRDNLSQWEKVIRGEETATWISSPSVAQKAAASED
Summary of the method: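 Hydrolysis of 3H-cAMP (60 nM cAMP, 0.008 μCi tracer) proceeded for 60 min at room temperature, with the product detected by SPA bead scintillation counting. The enzyme was hPDE10A from baculovirus-infected Sf9 cells in Tris pH 7.8 buffer with MgCl2 and EGTA, and compounds were at 1% DMSO final. Blanks lacked enzyme.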

[2] = biological target: T2, Human recombinant PDE3A (hPDE3A) (Homo sapiens, UniProt Q14432); assay: In vitro assay PDE3A (SPA, 3H-cAMP hydrolysis); assay type: biochemical; details: for IC50: hPDE3B pIC50, read-out: pIC50 (converted); for Emax: read-out: hPDE3B Emax, read-out: Emax;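 as to all read-outs here: the method names PDE3A and the table heading PDE3B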
T2 construct: purchased Scottish Biomedical; host or cells: Sf9 insect cells
T2 sequence (Q14432 whole entry): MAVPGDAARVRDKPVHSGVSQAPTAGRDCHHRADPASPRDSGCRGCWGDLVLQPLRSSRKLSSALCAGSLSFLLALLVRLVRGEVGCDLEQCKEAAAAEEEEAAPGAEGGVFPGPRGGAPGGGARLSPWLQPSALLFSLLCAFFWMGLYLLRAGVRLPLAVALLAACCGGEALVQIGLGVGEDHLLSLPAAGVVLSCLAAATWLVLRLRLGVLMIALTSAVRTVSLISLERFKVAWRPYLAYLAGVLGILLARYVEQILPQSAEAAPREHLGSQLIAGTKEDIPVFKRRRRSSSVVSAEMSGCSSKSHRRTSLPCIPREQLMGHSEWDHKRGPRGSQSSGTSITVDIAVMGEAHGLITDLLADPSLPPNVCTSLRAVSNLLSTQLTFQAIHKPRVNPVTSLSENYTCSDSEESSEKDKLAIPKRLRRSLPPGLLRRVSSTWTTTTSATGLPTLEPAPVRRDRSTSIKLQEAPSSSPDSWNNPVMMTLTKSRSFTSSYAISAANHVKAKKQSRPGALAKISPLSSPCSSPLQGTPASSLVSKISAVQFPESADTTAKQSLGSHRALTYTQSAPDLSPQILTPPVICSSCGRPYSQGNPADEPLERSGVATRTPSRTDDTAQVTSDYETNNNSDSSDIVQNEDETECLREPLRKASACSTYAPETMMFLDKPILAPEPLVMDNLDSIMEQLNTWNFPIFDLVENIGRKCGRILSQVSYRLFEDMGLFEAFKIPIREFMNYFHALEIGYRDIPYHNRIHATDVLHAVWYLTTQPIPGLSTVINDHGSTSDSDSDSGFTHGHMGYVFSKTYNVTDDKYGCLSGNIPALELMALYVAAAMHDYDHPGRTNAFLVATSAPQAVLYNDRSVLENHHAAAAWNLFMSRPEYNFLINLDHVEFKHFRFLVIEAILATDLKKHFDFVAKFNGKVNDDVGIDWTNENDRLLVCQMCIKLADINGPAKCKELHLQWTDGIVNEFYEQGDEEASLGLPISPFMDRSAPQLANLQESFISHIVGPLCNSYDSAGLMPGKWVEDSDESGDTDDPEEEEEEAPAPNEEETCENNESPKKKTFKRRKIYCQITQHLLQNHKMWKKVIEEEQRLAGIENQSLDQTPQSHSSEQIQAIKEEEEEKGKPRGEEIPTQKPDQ
Summary of the method: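 Radiometric SPA measuring [3H]-cAMP hydrolysis (0.4 μM cAMP, 2.4 μCi/ml) over 60 min at room temperature, in Tris pH 7.8 buffer with MgCl2 and EGTA, 1% DMSO. Enzyme: recombinant human brain PDE3A expressed in Sf9 cells, used as partially purified lysate. Counts compared with enzyme-free blanks and vehicle controls.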

[3] = biological target: T3, Human recombinant PDE2A (hPDE2A) (Homo sapiens, UniProt O00408); assay: In vitro assay PDE2A (SPA, 3H-cGMP hydrolysis); assay type: biochemical; details: for Emax: read-out: hPDE2A Emax
T3 construct: His tag (inferred from metal chelate purification); made in house; host or cells: Sf9 insect cells (baculovirus)
T3 sequence (O00408 whole entry): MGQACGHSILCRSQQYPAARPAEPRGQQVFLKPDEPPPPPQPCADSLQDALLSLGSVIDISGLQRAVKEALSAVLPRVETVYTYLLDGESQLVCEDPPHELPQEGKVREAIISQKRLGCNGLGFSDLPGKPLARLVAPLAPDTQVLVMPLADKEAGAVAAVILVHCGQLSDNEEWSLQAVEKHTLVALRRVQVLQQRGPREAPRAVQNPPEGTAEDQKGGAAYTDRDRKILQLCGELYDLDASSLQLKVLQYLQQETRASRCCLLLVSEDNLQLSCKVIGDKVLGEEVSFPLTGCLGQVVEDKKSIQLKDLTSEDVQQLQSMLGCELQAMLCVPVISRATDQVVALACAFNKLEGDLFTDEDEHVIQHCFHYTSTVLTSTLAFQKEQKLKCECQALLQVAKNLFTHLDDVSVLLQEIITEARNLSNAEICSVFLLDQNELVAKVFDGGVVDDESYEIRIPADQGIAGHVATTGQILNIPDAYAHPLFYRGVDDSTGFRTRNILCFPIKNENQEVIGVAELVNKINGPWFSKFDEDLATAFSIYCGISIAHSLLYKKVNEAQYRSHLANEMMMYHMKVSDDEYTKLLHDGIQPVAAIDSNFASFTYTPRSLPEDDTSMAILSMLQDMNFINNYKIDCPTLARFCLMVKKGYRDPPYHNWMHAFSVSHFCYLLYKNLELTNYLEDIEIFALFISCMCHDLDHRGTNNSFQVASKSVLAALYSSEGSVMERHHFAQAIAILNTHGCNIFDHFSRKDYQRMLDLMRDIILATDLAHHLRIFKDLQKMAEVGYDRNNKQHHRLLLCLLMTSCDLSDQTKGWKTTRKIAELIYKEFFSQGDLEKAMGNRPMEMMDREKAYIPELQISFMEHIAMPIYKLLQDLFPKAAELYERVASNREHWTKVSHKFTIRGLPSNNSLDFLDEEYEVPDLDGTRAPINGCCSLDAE

PDE2A = biological target: T4, PDE2A (Rattus norvegicus, UniProt Q01062); assay: PDE2 occupancy by test compounds, ex-vivo autoradiography with [3H]B-17a; assay type: in vivo, Male Wistar rats; details: for receptor occupancy at 10 mg/kg / PDE2 Occupancy at 10 mg/kg: percentage receptor occupancy, ex-vivo autoradiography, striatum; for ED50: read-out: PDE Occupancy ED50
T4 construct: Twenty μm-thick striatal sections were cut; from tissue; host or cells: rat brain, striatal sections
T4 sequence (Q01062 1-928): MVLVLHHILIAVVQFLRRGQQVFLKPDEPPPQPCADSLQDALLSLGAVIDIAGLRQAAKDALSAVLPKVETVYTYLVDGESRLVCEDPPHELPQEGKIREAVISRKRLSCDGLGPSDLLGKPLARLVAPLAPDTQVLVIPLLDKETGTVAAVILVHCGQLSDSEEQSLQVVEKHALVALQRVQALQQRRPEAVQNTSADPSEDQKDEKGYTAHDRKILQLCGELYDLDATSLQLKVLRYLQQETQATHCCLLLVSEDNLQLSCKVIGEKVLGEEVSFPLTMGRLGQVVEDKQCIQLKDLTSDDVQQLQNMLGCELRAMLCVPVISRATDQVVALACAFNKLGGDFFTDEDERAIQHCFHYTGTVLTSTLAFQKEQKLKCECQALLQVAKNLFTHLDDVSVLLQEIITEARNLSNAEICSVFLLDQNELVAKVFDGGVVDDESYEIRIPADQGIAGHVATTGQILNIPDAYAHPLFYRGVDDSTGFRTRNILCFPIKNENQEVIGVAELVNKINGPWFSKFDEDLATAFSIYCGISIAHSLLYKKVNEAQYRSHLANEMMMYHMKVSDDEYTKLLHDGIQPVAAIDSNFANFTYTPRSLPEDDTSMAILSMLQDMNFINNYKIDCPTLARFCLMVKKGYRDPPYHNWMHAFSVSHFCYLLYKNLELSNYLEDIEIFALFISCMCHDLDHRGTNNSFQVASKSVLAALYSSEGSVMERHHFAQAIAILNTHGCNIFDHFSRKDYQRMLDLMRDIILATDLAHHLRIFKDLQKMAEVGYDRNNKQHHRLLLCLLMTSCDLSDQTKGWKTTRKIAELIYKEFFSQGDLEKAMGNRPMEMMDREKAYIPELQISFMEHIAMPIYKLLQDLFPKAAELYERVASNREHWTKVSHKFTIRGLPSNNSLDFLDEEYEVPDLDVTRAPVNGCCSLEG

[4] = human recombinant PDE2A, 10 μM cGMP substrate, read-out: hPDE2A pIC50 (converted)
[5] = read-out: hPDE2A pIC50 (converted)
[6] = hPDE2A pIC50, human recombinant PDE2A, 10 μM cGMP substrate
[7] = human recombinant PDE2A, 10 μM cGMP substrate

Emax [1] [%] | IC50 [1] [nM] | IC50 [2] [nM] | Emax [2] [%] | IC50 [3, 4] [nM] | Emax ([3]; human recombinant PDE2A) [%] | Emax [3] [%] | IC50 [3, 5] [nM] | receptor occupancy at 10 mg/kg (PDE2A; po, route PO (oral)) [%] | SMILES | IC50 ([3]; hPDE2A pIC50) [nM] | IC50 [3, 6] [nM] | further results
86 | 2240 | > 10000 | 5 | 15.1 | 100 | 100 | 15.1 | -9 | CCCC[C@H]1CCN(C(=O)c2cc(C)nc(C)c2)C[C@@H]1c1cc(C(F)F)nc2ncnn12 (single isomer, unassigned) [Compound 46] | – | – | –
95 | 347 | > 10000 | 38 | 10.5 | 100 | 100 | 10.5 | 2 | Cc1cc([C@@H]2CN(C(=O)c3cc4cccnc4nc3C(F)(F)F)CC[C@H]2C)n2ncnc2n1 [Compound 13] | – | – | –
97 | 195 | 6460 | 65 | 4.68 | 100 | 100 | 4.68 | 4 | Cc1cc([C@@H]2CN(C(=O)c3cc(Cl)ncc3C)CC[C@H]2C)n2ncnc2n1 [Compound 18] | – | – | –
– | – | – | – | – | – | – | – | – | Cc1cc(C(=O)N2CC[C@@H](C)[C@](F)(c3cc(C(F)F)nc4ncnn34)C2)cc(C2CC2)n1 [Compound 24b] | – | – | hPDE10A2 Emax [1]: 60; hPDE10A2 pIC50 [1]: 5.13; hPDE3B Emax [2]: 28; hPDE2A Emax [3]: 98; hPDE2A pIC50 [3]: 8.19; hPDE2A Emax ([3]; human recombinant PDE2A): 98; hPDE2A pIC50 [3, 7]: 8.19; PDE2 Occupancy at 10 mg/kg (PDE2A; route SC (subcutaneous)): 0
– | – | – | – | – | – | – | – | – | O=C(c1ccc2ncsc2c1)N1[C@H]2CC[C@@H]1[C@H](c1cc(C(F)F)nc3ncnn13)CC2 [Compound 25b] | – | – | hPDE10A2 Emax [1]: 28; hPDE10A2 pIC50 [1]: <5; hPDE3B Emax [2]: 37; hPDE2A Emax [3]: 92; hPDE2A pIC50 [3]: 5.96; hPDE2A Emax ([3]; human recombinant PDE2A): 92; hPDE2A pIC50 [3, 7]: 5.96; PDE2 Occupancy at 10 mg/kg (PDE2A; route PO (oral)): −9
88 | 1100 | > 10000 | 37 | 0.912 | 100 | 100 | 0.912 | 34 | Cc1cnc(Cl)cc1C(=O)N1CC[C@@H](C)[C@H](c2cc(C(F)F)nc3ncnn23)C1 [Compound 27] | – | – | –
81 | 1450 | > 10000 | 31 | 3.47 | 100 | 100 | 3.47 | -6 | Cc1cc(C(=O)N2CC[C@@H](C)[C@H](c3cc(C(F)F)nc4ncnn34)C2)c(C)cn1 [Compound 32] | – | – | –
67 | 6170 | > 10000 | 25 | 14.8 | 99 | 99 | 14.8 | -7 | C[C@@H]1CCN(C(=O)c2ccc3ncsc3c2)C[C@@]1(F)c1cc(C(F)F)nc2ncnn12 [Compound 33] | – | – | –
93 | 468 | 3980 | 64 | – | – | 100 | 2.75 | 32 | COc1cc(C(=O)N2CC[C@@H](C)[C@H](c3cc(C(F)F)nc4ncnn34)C2)c(F)cn1 [Compound 36] | – | – | ED50 (PDE2A; route PO (oral), drug dose producing 50% receptor occupancy): 45.2 mg/kg
93 | 427 | 8910 | 52 | – | – | 100 | 17.4 | -13 | COc1cc(C(=O)N2CC[C@@H](C)[C@H](c3cc(C)nc4ncnn34)C2)c(C(F)(F)F)cn1 [Compound 37] | – | – | –
80 | 2290 | > 10000 | 43 | 6.17 | 100 | 100 | 6.17 | 1 | COc1nc(N)ncc1C(=O)N1CC[C@@H](C)[C@H](c2cc(C(F)F)nc3ncnn23)C1 [Compound 38] | – | – | –
75 | 3090 | > 10000 | 16 | 8.32 | 98 | 98 | 8.32 | -8 | C[C@@H]1CCN(C(=O)c2cc(Cl)cnc2C(F)(F)F)C[C@H]1c1cc(C(F)F)nc2ncnn12 [Compound 39] | – | – | –

SMILES | Emax [1] [%] | IC50 [1] [nM] | IC50 [2] [nM] | Emax [2] [%] | IC50 [3, 4] [nM] | Emax ([3]; human recombinant PDE2A) [%] | Emax [3] [%] | IC50 [3, 5] [nM] | receptor occupancy at 10 mg/kg (PDE2A; po, route PO (oral)) [%] | IC50 ([3]; hPDE2A pIC50) [nM] | IC50 [3, 6] [nM] | further results
Cc1cc(C(=O)N2CC[C@@H](C)[C@H](c3cc(C)nc4ncnn34)C2)cc(C)n1 [Compound 1a] | 98 | 12.9 | 2090 | 65 | – | – | 100 | – | 37 | 0.794 | 0.794 | –
Cc1cc([C@@H]2CN(C(=O)c3ccc4ncsc4c3)CC[C@H]2C)n2ncnc2n1 [Compound 2a] | 101 | 7.24 | 776 | 98 | – | – | 101 | – | – | 0.589 | 0.589 | receptor occupancy at 10 mg/kg (PDE2A; sc, route SC (subcutaneous)): 70%
Cc1cc([C@H]2CN(C(=O)c3ccc4ncsc4c3)CC[C@@H]2C)n2ncnc2n1 [Compound 2b] | 95 | 269 | > 10000 | 31 | – | – | 100 | – | – | 19.1 | 19.1 | receptor occupancy at 10 mg/kg (PDE2A; sc, route SC (subcutaneous)): 3%
Cc1cc([C@@H]2CN(C(=O)c3cc(C)c(C)cn3)CC[C@H]2C)n2ncnc2n1 [Compound 3a] | 93 | 269 | 3470 | 77 | – | – | 97 | – | 0 | 5.75 | 5.75 | –
Cc1cc(C(=O)N2CC[C@@H](C)[C@H](c3cc(C)nc4ncnn34)C2)cc(C(F)(F)F)n1 [Compound 4] | 99 | 24 | 5750 | 70 | – | – | 100 | – | 9 | 1.45 | 1.45 | –
Cc1cc([C@@H]2CN(C(=O)c3ccc4occc4c3)CC[C@H]2C)n2ncnc2n1 [Compound 6] | 100 | 17.8 | 676 | 97 | – | – | 99 | – | 67 | 1.62 | 1.62 | –
Cc1cc(C(=O)N2C3CCC2[C@@H](c2cc(C(F)F)nc4ncnn24)CC3)cc(C2CC2)n1 (some centres unmarked) [Compound 28] | 95 | 447 | > 10000 | 17 | 0.955 | 101 | 101 | 0.955 | – | – | – | receptor occupancy at 10 mg/kg (PDE2A; route SC (subcutaneous)): 49%; ED50 (PDE2A; po): 25 mg/kg
Cc1cc(C(=O)N2[C@H]3CC[C@@H]2[C@H](c2cc(C(F)F)nc4ncnn24)CC3)cc(C)n1 [Compound 30] | 32 | > 10000 | > 10000 | 8 | 3550 | 77 | 77 | 3550 | – | – | – | receptor occupancy at 10 mg/kg (PDE2A; route SC (subcutaneous)): 0%
